# Patent US12653191B2, “Active compound combinations” (Bayer Aktiengesellschaft, priority 2020, dated 2026)
# Where two headings read alike, the source gives them in different places.
# Assays:
# [1] = test system: Parastagonospora nodorum; assay: in vitro-Test with fungal microorganisms, Method A (tables H1-H4); type: cell-based
# In short: (§1)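 Broth microdilution-type growth test in potato dextrose medium with spores or mycelium of the fungus, compound pre-dried from methanol/emulsifier. Efficacy from 620 nm extinction after 3-5 days at 20° C, scaled 0% (untreated growth) to 100% (no growth).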
# [2] = test system: Fusarium culmorum; assay: in vitro-Test with fungal microorganisms, Method A (tables G1-G4); type: cell-based; conditions: for inhibition of growth at 20 ppm / inhibition of growth at 0.8 ppm / inhibition of growth at 4 ppm: Fusarium culmorum, read-out: Efficacy
# In short: as §1
# [3] = test system: Colletotrichum coccodes; assay: in vitro-Test with fungal microorganisms, Method B (tables J1-J11); type: cell-based; conditions: Colletotrichum coccodes, read-out: Efficacy %
# In short: (§2)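 Cpd in MeOH + alkylaryl-polyglycol-ether, solvent evaporated; liquid medium + fungal spores/mycelium added; OD600 read; 3–7 d, 20° C., 85% RH; growth inhibition by photometry, % efficacy vs untreated ctrl.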
# [4] = test system: Colletotrichum lindemuthianum; assay: in vitro-Test with fungal microorganisms, Method A (tables D1-D8); type: cell-based; conditions: Colletotrichum lindemuthianum, read-out: Efficacy %
# In short: as §1
# [5] = test system: Parastagonospora nodorum; assay: in vitro-Test with fungal microorganisms, Method B (tables H5-H8); type: cell-based; conditions: Parastagonospora nodorum, read-out: Efficacy
# In short: as §2
# [6] = test system: Diaporthe citri; assay: in vitro-Test with fungal microorganisms, Method B (tables F12-F15); type: cell-based; conditions: Table F15
# In short: as §2
# [7] = test system: Alternaria alternate; assay: in vitro-Test with fungal microorganisms, Method A (tables A1-A12); type: cell-based, Alternaria alternata; conditions: Alternaria, applied alone, read-out: Efficacy %
# In short: as §1
# [8] = test system: Botrytis cinerea; assay: in vitro-Test with fungal microorganisms, Method A (tables B1-B14); type: cell-based; conditions: for inhibition of growth at 0.8 ppm / inhibition of growth at 4 ppm / inhibition of growth at 20 ppm: Botrytis cinerea
# In short: as §1
# [9] = test system: Diaporthe citri; assay: in vitro-Test with fungal microorganisms, Method A (tables F1-F11); type: cell-based; conditions: Diaporthe citri, applied alone, read-out: Efficacy
# In short: as §1
# [10] = test system: Cercospora beticola; assay: in vitro-Test with fungal microorganisms, Method B (tables C11-C20); type: cell-based; conditions: Cercospora beticola, read-out: Efficacy %
# In short: as §2
# [11] = test system: Ustilago segetum var. avenae; assay: in vitro-Test with fungal microorganisms, Method A (tables I1-I5); type: cell-based; conditions: alone, read-out: Efficacy %
# In short: as §1
# [12] = test system: Cordana musae; assay: in vitro-Test with fungal microorganisms, Method A (tables E1-E8); type: cell-based
# In short: as §1
# [13] = test system: Cercospora beticola; assay: in vitro-Test with fungal microorganisms, Method A (tables C1-C10); type: cell-based; conditions: Cercospora beticola, read-out: Efficacy %
# In short: as §1
# [14] = test system: Botrytis cinerea; assay: in vitro-Test with fungal microorganisms, Method B (tables B15-B18); type: cell-based; conditions: Botrytis cinerea, alone, read-out: Efficacy %
# In short: as §2
# [15] = test system: Fusarium culmorum; assay: in vitro-Test with fungal microorganisms, Method B (tables G5-G15); type: cell-based; conditions: Fusarium culmorum, read-out: Efficacy
# In short: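 Read photometrically at 600 nm after 3-7 days at 20° C and 85% relative humidity, Fusarium culmorum growth inhibition is expressed against untreated control. Wells hold solvent-evaporated compound (from methanol/emulsifier) overlaid with spore- or mycelium-amended growth medium.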
# [16] = test system: Cordana musae; assay: in vitro-Test with fungal microorganisms, Method B (tables E9-E16); type: cell-based; conditions: Neocordana musae, single active, 4 ppm; read-out: Efficacy
# In short: as §2
# [17] = test system: Ustilago segetum var. avenae; assay: in vitro-Test with fungal microorganisms, Method B (tables I6-I11); type: cell-based; conditions: 20 ppm; read-out: Efficacy %
# In short: as §2
# [18] = test system: Alternaria alternata; assay: in vitro-Test with fungal microorganisms, Method B (tables A13-A22); type: cell-based; conditions: Alternaria alternata, read-out: Efficacy
# In short: as §2
# [19] = single active compound, 0.8 ppm
# [20] = alone, 0.8 ppm, read-out: Efficacy %
structure (smiles),measurement,setting,value
"CCCN(CC)CC1COC2(CCC(C(C)(C)C)CC2)O1 (stereo not drawn) [(1.020) spiroxamine, spiroxamine]",Efficacy,[1]; [19],2%
same,Efficacy,"[1]; single active compound, 4.0 ppm",4%
same,Efficacy,"[1]; single active compound, 20.0 ppm",7%
same,Efficacy,"[2]; 4.0 ppm, alone",0%
same,inhibition of growth at 20 ppm,"[2]; 20.0 ppm, alone",0%
same,inhibition of growth at 0.8 ppm,[3]; 0.8 ppm,0%
same,inhibition of growth at 4 ppm,[3]; 4 ppm,0%
same,inhibition of growth at 20 ppm,[3],0%
same,inhibition of growth at 0.8 ppm,"[3]; applied alone, 0.8 ppm",0%
same,inhibition of growth at 20 ppm,[3]; applied alone,39%
same,inhibition of growth at 0.8 ppm,"[4]; mixing partner alone, 0.8 ppm",0%
same,inhibition of growth at 20 ppm,"[4]; mixing partner alone, 20.0 ppm",6%
same,inhibition of growth at 0.8 ppm,[4]; single active at 0.8 ppm,0%
same,inhibition of growth at 4 ppm,[4]; single active at 4.0 ppm,8%
same,inhibition of growth at 20 ppm,[4]; single active at 20.0 ppm,0%
same,inhibition of growth at 0.8 ppm,[5]; 0.8 ppm,5%
same,inhibition of growth at 4 ppm,[5],5%
same,inhibition of growth at 20 ppm,[5],17%
same,Efficacy,[6]; 4 ppm alone,0%
same,Efficacy,[6]; 20 ppm alone,4%
same,inhibition of growth at 0.8 ppm,[7]; 0.8 ppm,18%
same,inhibition of growth at 4 ppm,[7],12%
same,inhibition of growth at 20 ppm,[7],16%
same,inhibition of growth at 0.8 ppm,"[8]; 0.8 ppm, read-out: Efficacy",0%
same,inhibition of growth at 4 ppm,[8]; read-out: Efficacy,0%
same,inhibition of growth at 20 ppm,[8]; read-out: Efficacy,18%
same,inhibition of growth at 0.8 ppm,[8]; [20],0%
same,inhibition of growth at 20 ppm,"[8]; alone, read-out: Efficacy %",14%
same,Efficacy %,"[8]; alone, 0.8 ppm",0%
same,inhibition of growth at 0.8 ppm,[9]; 0.8 ppm,6%
same,inhibition of growth at 4 ppm,[9],8%
same,inhibition of growth at 20 ppm,[9]; 20.0 ppm,0%
same,inhibition of growth at 4 ppm,[10]; single compound,6%
same,inhibition of growth at 0.8 ppm,[11],3%
same,inhibition of growth at 4 ppm,[11],71%
same,inhibition of growth at 20 ppm,[11],100%
same,inhibition of growth at 20 ppm,"[12]; Neocordana musae, mixing partner alone, 20.0 ppm, read-out: Efficacy %",9%
same,Efficacy %,"[12]; mixing partner alone, 0.8 ppm",0%
"O=C(NCCc1ncc(C(F)(F)F)cc1Cl)c1ccccc1C(F)(F)F [(2.005) fluopyram, Fluopyram]",Efficacy,[1]; 0.8 ppm,37%
same,Efficacy,[1]; 4.0 ppm,44%
same,Efficacy,[1]; 20.0 ppm,70%
same,inhibition of growth at 0.8 ppm,[13]; 0.8 ppm alone,0%
same,inhibition of growth at 4 ppm,[13]; 4.0 ppm alone,27%
same,inhibition of growth at 20 ppm,[13]; 20.0 ppm alone,39%
same,inhibition of growth at 0.8 ppm,"[2]; 0.8 ppm, alone",0%
same,inhibition of growth at 4 ppm,"[2]; 4.0 ppm, alone",0%
same,inhibition of growth at 20 ppm,"[2]; 20.0 ppm, alone",16%
same,inhibition of growth at 0.8 ppm,"[2]; Table G1, 0.8 ppm alone",0%
same,inhibition of growth at 4 ppm,"[2]; Table G1, 4.0 ppm alone",0%
same,inhibition of growth at 20 ppm,"[2]; Table G1, 20.0 ppm alone",21%
same,inhibition of growth at 0.8 ppm,[14]; 0.8 ppm,51%
same,inhibition of growth at 4 ppm,[14]; 4 ppm,79%
same,inhibition of growth at 20 ppm,[14]; 20 ppm,100%
same,inhibition of growth at 4 ppm,"[15]; 4 ppm, alone",21%
same,inhibition of growth at 0.8 ppm,[15]; [19],20%
same,inhibition of growth at 20 ppm,"[15]; single active compound, 20 ppm",37%
same,inhibition of growth at 4 ppm,[3]; 4 ppm,14%
same,inhibition of growth at 0.8 ppm,[3]; single active compound at 0.8 ppm,0%
same,inhibition of growth at 4 ppm,[3]; single active compound at 4 ppm,0%
same,inhibition of growth at 4 ppm,[16],0%
same,inhibition of growth at 20 ppm,[17],20%
same,inhibition of growth at 20 ppm,[4]; single active at 20.0 ppm,23%
same,inhibition of growth at 4 ppm,[5],35%
same,inhibition of growth at 20 ppm,[5],59%
same,inhibition of growth at 4 ppm,[7],63%
same,inhibition of growth at 20 ppm,[7],82%
same,inhibition of growth at 0.8 ppm,"[8]; 0.8 ppm, read-out: Efficacy",69%
same,inhibition of growth at 4 ppm,[8]; read-out: Efficacy,72%
same,inhibition of growth at 20 ppm,[8]; read-out: Efficacy,100%
same,inhibition of growth at 0.8 ppm,[8]; [20],65%
same,inhibition of growth at 4 ppm,"[8]; alone, read-out: Efficacy %",75%
same,inhibition of growth at 20 ppm,"[8]; alone, read-out: Efficacy %",75%
same,inhibition of growth at 4 ppm,[9],15%
same,inhibition of growth at 0.8 ppm,[10],31%
same,inhibition of growth at 4 ppm,[10],0%
same,inhibition of growth at 20 ppm,[10],56%
same,inhibition of growth at 0.8 ppm,[10]; single compound,11%
same,inhibition of growth at 4 ppm,[10]; single compound,0%
same,inhibition of growth at 20 ppm,[10]; single compound,7%
same,inhibition of growth at 0.8 ppm,[11],9%
same,inhibition of growth at 4 ppm,[11],10%
same,inhibition of growth at 20 ppm,[11],10%
same,inhibition of growth at 0.8 ppm,[18],61%
same,inhibition of growth at 4 ppm,[18],81%
same,inhibition of growth at 20 ppm,[18],88%
same,inhibition of growth at 0.8 ppm,[18]; single compound,79%
same,inhibition of growth at 4 ppm,[18]; single compound,81%
same,inhibition of growth at 20 ppm,[18]; single compound,91%
same,inhibition of growth at 0.8 ppm,"[12]; Neocordana musae, single substance, 0.8 ppm, read-out: Efficacy %",0%
same,inhibition of growth at 4 ppm,"[12]; Neocordana musae, single substance, 4.0 ppm, read-out: Efficacy %",1%
